Source: patent US12337005B2, “Methods of treating thrombosis” (UNIVERSITY OF IOWA RESEARCH FOUNDATION, priority 2020, dated 2025)

What was measured:
Format in all cases: cell-based
[1] = system: mouse whole blood; assay: Bioflux flow chamber assay, mouse whole blood on collagen; settings: ML265 150 μM
Description: In vitro thrombosis assays were performed using BioFlux™ 200 (Fluxion Biosciences, USA) microfluidics flow chamber (Nayak et al., 2018). The channels were coated with Type I collagen (100 μg/ml) for one hour at room temperature and then blocked with 0.5% BSA for 30 minutes. Platelets were isolated from citrated whole blood as described above, washed, labeled with the fluorescent dye (calcein AM; 2 μM) and were reconstituted back with PPP and remaining blood containing leukocytes and RBC. The whole blood pretreated with ML265 or vehicle (DMSO) was perfused over the collagen-coated plate at shear stress 1500 s^−1 for 5 minutes. Experiments were performed in triplicates using whole blood from human and mice. The fluorescently labeled platelets/thrombi on the collagen-coated surface were analyzed using ImageJ software from NIH (Bethesda, MD, USA).

[2] = system: integrin αIIbβ3; assay: Integrin αIIbβ3 activation (JONA binding), mouse platelets; settings: convulxin and PAR4-induced
[3] = system: human platelets; assay: Annexin V-affinity assay, human platelets
Description: Mouse and human washed platelets (1×10^8/ml) were pre-incubated with different concentrations of ML265 ([…]). Washed platelets activated with thrombin (0.5 U/ml)+convulxin (100 ng/ml) were used as a positive control. The samples were added to 1× Annexin V-binding buffer (BD Biosciences). Following this, annexin V-FITC antibody was added to each sample, gently mixed, and incubated at room temperature for 15 minutes in the dark. After incubation, 1× Annexin-binding buffer was added to each tube and analyzed by a Becton Dickinson FACSCalibur flow cytometer.

With `Cn1c2cc([S+](C)[O-])sc2c2cnn(Cc3cccc(N)c3)c(=O)c21` (stereo not drawn) [ML265, 6-[(3-aminophenyl)methyl]-4,6-dihydro-4-methyl-2-(methylsulfinyl)-5H-thieno[2′,3′:4,5]pyrrolo[2,3-d]pyridazine-5-one] the “thrombus growth rate vs vehicle control” value ([1]; collagen, 1500 s-1) was “marked reduction”, the “percent of the area covered by platelets vs vehicle control” value ([1]; collagen, 1500 s-1, 5 minutes) was “marked reduction” and the “rate of thrombus growth (slope over time)” value ([1]; vehicle slope 236.1) was 61.65. For the same compound, the “activation of αIIbβ3 (JONA binding)” value [2] was “decreased”, the “concentration not inducing phosphatidyl serine surface expression (annexin V)” value [3] was ≤ 300 µM and the “apoptosis in resting platelets (Annexin V binding)” value ([3]; increasing concentrations of ML265) was “does not induce”.
